Drawing on article PMC4718068 (Translation, 2013), this text covers Kd and rate of formation of the ribosome–EF-G-mant-GTP complex for two compounds.

Test [1] has as its target EF-G (Escherichia coli, UniProt P0A6M8). Put plainly: equilibrium titration, Trp fluorescence. Type of test: binding.
Test [2] concerns the target EF-G (Escherichia coli, UniProt P0A6M8, H92A). The experiment in a line: equilibrium titration, Trp fluorescence. Type of test: binding.
Test [3] addresses Ribosomes from E. coli MRE 600 (E. coli MRE 600) (UniProt P0AG67). The experiment in a line: stopped-flow fluorescence of mant-nucleotide excited by FRET from Trp of EF-G.

pKd: −log10 of the molar value.

EF-G (Escherichia coli, UniProt P0A6M8), sequence (P0A6M8 2-704): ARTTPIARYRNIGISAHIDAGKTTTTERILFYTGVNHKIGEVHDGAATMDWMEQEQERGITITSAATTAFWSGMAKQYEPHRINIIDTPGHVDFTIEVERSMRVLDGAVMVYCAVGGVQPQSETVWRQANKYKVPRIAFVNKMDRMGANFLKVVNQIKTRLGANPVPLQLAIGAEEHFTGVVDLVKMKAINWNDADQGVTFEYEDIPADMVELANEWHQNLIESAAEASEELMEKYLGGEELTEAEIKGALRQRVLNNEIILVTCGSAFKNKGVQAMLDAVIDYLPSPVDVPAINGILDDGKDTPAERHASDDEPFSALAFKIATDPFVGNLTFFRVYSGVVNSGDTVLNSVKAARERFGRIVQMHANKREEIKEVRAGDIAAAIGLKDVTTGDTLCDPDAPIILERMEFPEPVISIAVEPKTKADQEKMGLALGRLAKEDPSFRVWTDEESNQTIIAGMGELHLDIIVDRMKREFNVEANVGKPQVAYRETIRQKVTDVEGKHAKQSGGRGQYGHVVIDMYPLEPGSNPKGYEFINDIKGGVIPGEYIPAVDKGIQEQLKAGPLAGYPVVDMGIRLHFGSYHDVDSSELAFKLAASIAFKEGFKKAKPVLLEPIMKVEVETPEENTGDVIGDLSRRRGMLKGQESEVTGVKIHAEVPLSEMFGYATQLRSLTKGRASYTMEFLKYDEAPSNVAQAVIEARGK
EF-G (Escherichia coli, UniProt P0A6M8, H92A), sequence (P0A6M8 2-704 H92A): as the sequence (P0A6M8 2-704) above, with H91A counted along it

For `Nc1nc2c(ncn2[C@@H]2O[C@H](COP(=O)(O)OP(=O)(O)OP(=O)(O)O)[C@@H](O)[C@H]2O)c(=O)[nH]1` [GTP], the pKd on EF-G [1] and at EF-G [2] was 5.70 to 6.00 throughout.

In test [3], EF-G(H91A) (enzyme) came in with a rate of formation of the ribosome–EF-G-mant-GTP complex of 1 s⁻¹.
